Where a name gives a salt, the structure may show the parent alone.

Test [1] has as its system ID211 patient-derived PDAC 2D line (post-FOLFIRINOX). The experiment in a line: normalised area under dose-response curve (viability relative to DMSO, 7 doses up to 10 µM) (fraction (AUC)); higher = less sensitive (more viability retained). The settings on record: 72 h; top dose: 10 µM. A digest of the protocol:
(§1)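 A robot plated 1,500–3,000 cells/well of patient-derived 2D PDAC cells, outgrown from organoids, into 96-well plates, followed by overnight incubation at 37°C, 5% CO2. The cells were exposed for 72 h to SelleckChem library compounds at seven 3-fold-diluted concentrations up to 10 µM, and CellTiter-Glo luminescence was read after 10 min. Area under the dose-response curve came from the GRmetrics R package, with viability normalised to control wells.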

In test [2] the test system is ID188 patient-derived PDAC 2D line (pre-FOLFIRINOX). The test is described as above. The settings on record: 72 h; top dose: 10 µM. In outline:
as §1

Regarding `Cc1nc(C(=O)NCC(=O)O)c(O)c2ccc(Oc3ccccc3)cc12` [Roxadustat (FG-4592)], the “normalised area under dose-response curve” value (“normalised area” for short) in test [1] turned out to be 0.842; in test [2], 0.951.
As to `O=C(Nc1cc(Cl)cc2c1[nH]c1cnccc12)c1cccnc1` [PS-1145], the “normalised area” value in test [1] was determined as 0.839; in test [2], 0.923.
In the case of `CC(C)C[C@H](NC(=O)CNC(=O)c1cc(Cl)ccc1Cl)B1OC(=O)C(CC(=O)O)(CC(=O)O)O1` [Ixazomib Citrate (MLN9708)], the “normalised area” value in test [1] turned out to be 0.48; in test [2], 0.425.
In the case of `COc1cc(CCc2cc(NC(=O)c3ccc(N4CC(C)NC(C)C4)cc3)n[nH]2)cc(OC)c1` (stereo not drawn) [AZD4547], the “normalised area” value in test [1] came to 0.829; in test [2], 0.998.
For `CC(C)c1cc(-c2n[nH]c(=O)n2-c2ccc3c(ccn3C)c2)c(O)cc1O` [Ganetespib (STA-9090)], in that order: 0.266 and 0.483.
For `CCC1C/C(=C\c2cccnc2)C(=O)/C(=C/c2cccnc2)C1` (stereo not drawn) [MCB-613], in that order: 0.778 and 0.764.
In the same order, the values of `Cc1cc2c3c([n+](C)c4ccc(F)cc4c3c1)-c1cc(F)ccc1N2C` [RHPS 4 methosulfate] are 0.906 and 0.945.
As to `CN(C)C(=O)c1cc2cnc(Nc3ccc(N4CCNCC4)cn3)nc2n1C1CCCC1` [Ribociclib (LEE011)], the “normalised area” value in test [1] came out at 0.812; in test [2], 0.961.
As to `N#Cc1ccc(-c2csc(NN=C3CCCC3)n2)cc1` [Remodelin], the “normalised area” value in test [1] is 0.854; in test [2], 0.941.
Take `Cc1ccc(NC(=O)c2ccc(CN3CC[C@H](N(C)C)C3)c(C(F)(F)F)c2)cc1Nc1nccc(-c2cncnc2)n1` [Bafetinib (INNO-406)]: the “normalised area” value in test [1] was 0.841; in test [2] it was 0.906.
In the same order, the values of `O=C(NCCCNc1nc(Nc2cccc(NC(=O)N3CCCC3)c2)ncc1I)c1cccs1` [BX-795] are 0.883 and 0.885.
Take `C[C@@H](NC(=O)c1ncnc(N)c1Cl)c1ncc(C(=O)Nc2cc(C(F)(F)F)c(Cl)cn2)s1` [MLN2480]: the results for the “normalised area” value in test [1] and in test [2] were 0.818 and 0.905, respectively.
For `COc1cc(O)c(CC=C(C)C)c(O)c1C(=O)/C=C/c1ccc(O)cc1` [Xanthohumol], in that order: 0.926 and 0.943.
For `O=P1(N(CCCl)CCCl)NCCCO1` (stereo not drawn) [Cyclophosphamide Monohydrate], in that order: 0.899 and 0.927.

The values above are taken from the supplement of paper PMC8988213.
